Source: patent US12514856B2, “Pediatric trazodone compositions and method of treatment thereof” (ANGELINI S.p.A., priority 2019, dated 2026)
Values joined by “and” are separate entries in the source; they are usually repeats but may differ in a detail not shown here. Equal entries are not always repeated. Where two headings read alike, the source gives them in different places.

Tests used:
[1] = Toxicological Risk Assessment of excipients in oral drops (MDI vs ADI); set-up: species or system children; settings: Maximum Daily Therapeutic Dose up to 0.5 mg/kg/day; for MDI (for 2 years aged children): Trazodone HCl 1.5% oral solution; for MDI (for 6 years aged children): Trazodone HCl 3.0% oral solution
Experimental: The Toxicological Risk Assessment of the formulations was performed to evaluate the safety of the excipients employed in the two oral drops formulations for pediatric use.

[2] = cited from earlier work
Caco-2 permeability = type: in vitro ADME; settings: human
Text: (§1) Derivation of key parameters is described below.

[3] = Physical chemistry of trazodone; type: physicochemical
Text: as §1

[4] = Blood binding (E:P ratio, equilibrium dialysis); type: in vitro ADME
Text: as §1

human liver microsome = assay: Additional HLM CLint (retrograde calculation); settings: 30% of hepatic metabolism assigned to undefined pathways
Text: as §1

[5] = PBPK modelling (Simcyp Population-Based Simulator); settings: ER; fitting of concentration-time data following a single oral dose of 300 mg ER trazodone
[6] = tested on: children with insomnia affected by NDDs; assay: Phase II trial in children with insomnia affected by NDDs; type: in vivo, human
Experimental: Three different doses, 0.25/0.4 and 0.5 mg/kg/day were administered at bedtime in fruit juice (in a volume of about 200 mL) in the pediatric population of from 2 to 17 years old.
A multi-centre, randomised, parallel-group, single-blind phase II trial was designed, based on the prediction described in the previous Example 3, to evaluate the pharmacokinetics and PKPD relationship of trazodone after single and repeated oral doses in children from 2 to years of age, suffering from insomnia, affected by neurodevelopmental disorders (NDDs: autism spectrum disorder, intellectual disability or attention deficit hyperactivity disorder). The single-blind phase II trial is still ongoing.
The primary objective of this study is to assess the pharmacokinetics (PK) of trazodone after single and repeated doses in patients aged from 2 to years.
Among the secondary objectives of this study, there are the establishment of the pharmacokinetic-pharmacodynamic (PKPD) relationship of trazodone, as assessed by actigraphy measures, and the definition of the dose rationale in children and adolescents aged from […] taking into account the therapeutic exposure range in adults.
The parent's diary will also be used in the evaluation of the results. This phase II clinical trial is designed to assess the PK and PD of 3 dose levels of trazodone in children with insomnia affected by NDDs. A minimum of 36 patients will be randomly assigned (at least 30 evaluable patients, 10 for each treatment arm; at least 10 evaluable patients aged 2 to years, 10 evaluable patients aged 6 to […], 10 evaluable patients aged 12 to years; at least 3 patients for each age and treatment arm).
Patients are initially assigned to one of the 3 treatment arms. Patients in treatment arms 2 and 3 will receive 0.25 mg/kg/day for 3 days followed by a higher maintenance dose for 7 days: • Treatment arm 1: 0.25 mg/kg/day (on days 1 through 10) • Treatment arm 2: 0.4 mg/kg/day (0.25 mg/kg/day on days 1 through 3 and 0.4 mg/kg/day on days 4 through 10) • Treatment arm 3: 0.5 mg/kg/day (0.25 mg/kg/day on days 1 through 3 and 0.5 mg/kg/day on days 4 through 10).
Patients qualifying for the participation in the study at visit 1 (day 1, randomisation—first dose) have been admitted to the clinic at 2 out of 3 visits, according to a patient-specific PK sampling scheme. Due to the requirement of sparse sampling, each patient will contribute a total of 5 PK samples.
Sleep latency and total sleeping time have been recorded by actigraphy starting from 3 consecutive days prior to visit 1 up to the end of the treatment.
An interim analysis has been performed after completion of 18 patients to assess whether data collected allows the determination of the relevant PK parameters with the appropriate precision. The 18 patients are so distributed according treatment arms: 3 patients in treatment arm 1, 5 patients in treatment arm 2, 10 patients in treatment arm 3.

CYP3A4 = CYP3A4 (Homo sapiens, UniProt P08684); assay: CYP3A4-mediated metabolism (retrograde calculation)
CYP3A4, sequence (P08684 whole entry): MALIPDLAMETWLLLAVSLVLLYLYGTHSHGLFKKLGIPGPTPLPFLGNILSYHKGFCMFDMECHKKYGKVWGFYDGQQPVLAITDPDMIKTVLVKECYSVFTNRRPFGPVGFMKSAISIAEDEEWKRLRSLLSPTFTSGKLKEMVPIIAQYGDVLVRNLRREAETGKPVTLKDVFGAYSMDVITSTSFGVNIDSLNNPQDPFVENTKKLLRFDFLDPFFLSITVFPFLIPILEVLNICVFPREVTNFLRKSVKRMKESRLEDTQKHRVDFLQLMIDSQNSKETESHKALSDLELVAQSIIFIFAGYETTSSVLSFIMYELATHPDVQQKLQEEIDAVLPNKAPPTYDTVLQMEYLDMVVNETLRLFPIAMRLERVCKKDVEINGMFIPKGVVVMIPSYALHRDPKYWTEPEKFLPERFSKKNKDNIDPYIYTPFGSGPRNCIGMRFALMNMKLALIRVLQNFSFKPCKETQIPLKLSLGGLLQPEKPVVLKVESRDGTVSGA

[7] = alternative value printed beside the first (EMA 2014; FDA 1998 USA; EFSA 2014; JECFA 1973)
[8] = first-listed value/reference (JECFA, SCF)

Structure (SMILES) | MDI (for 2 years aged children) [1] | MDI (for 6 years aged children) [1] | ADI [2, 7] | ADI [2, 8] | further results
O=C(O)CC(O)(CC(=O)O)C(=O)O [Citric acid anhydrous] | 0.17 mg/kg/day | 0.08 mg/kg/day | – | – | –
O=C([O-])CN(CCN(CC(=O)[O-])CC(=O)O)CC(=O)O.[Na+].[Na+] [Disodium edetate] | 0.02 mg/kg/day | 0.01 mg/kg/day | 2.5 mg/kg/day | 1.9 mg/kg/day and 1.9 (ex- mg/kg/day | –
C/C=C/C=C/C(=O)[O-].[K+] [K-Sorbate] | – | – | 11 mg/kg/day | 3 mg/kg/day | –
CCCOC(=O)c1cc(O)c(O)c(O)c1 [Propyl gallate] | 0.03 mg/kg/day | 0.02 mg/kg/day | 0.5 mg/kg/day | 1.4 mg/kg/day | –
CC(O)CO (stereo not shown) [Propylene glycol] | 10.00 mg/kg/day | 5.00 mg/kg/day | 50 mg/kg/day | 25 mg/kg/day | –
O=C([O-])c1ccccc1.[Na+] [Sodium Benzoate] | – | – | – | 5 mg/kg/day | –
[Na+].[OH-] [Sodium hydroxide] | 0.04 mg/kg/day | 0.02 mg/kg/day | – | Not limited | –
OC[C@H]1O[C@H](O[C@]2(CCl)O[C@H](CCl)[C@@H](O)[C@@H]2O)[C@H](O)[C@@H](O)[C@H]1Cl [Sucralose] | 0.05 mg/kg/day | 0.03 mg/kg/day | 5 mg/kg/day and 5 (USA) mg/kg/day | 15 (UE) mg/kg/day and 15 mg/kg/day and 15 (UE)^ mg/kg/day | –
OC[C@H]1O[C@@](CO)(O[C@H]2O[C@H](CO)[C@@H](O)[C@H](O)[C@H]2O)[C@@H](O)[C@@H]1O [Sucrose] | – | – | – | GRAS | –
COC(=O)c1ccc(O)cc1 [methyl parahydroxybenzoate] | – | – | – | 10 mg/kg/day | –
COCCc1ccc(OCC(O)CNC(C)C)cc1 (stereo not shown) [metoprolol] | – | – | – | – | Papp (Caco-2 permeability; Caco-2): 28.1 ×10⁻⁶ cm/s
O=c1n(CCCN2CCN(c3cccc(Cl)c3)CC2)nc2ccccn12 [trazodone] | – | – | – | – | solubility as a function of pH [3]: fully soluble only at acidic pH and precipitates at pH values close to neutrality; pKa ([3]; Monoprotic Base): 6.61; B/P ([4]; blood to plasma, calculated from measured E:P ratio): 0.68; E:P ratio ([4]; erythrocyte to plasma ratio): of 0.2.; fup ([4]; fraction unbound in plasma, equilibrium dialysis): 0.0354; Additional HLM CLint (human liver microsome): 25.7 µL/min/mg; ka [5]: ER: 0.07 hr^−1; Papp (Caco-2 permeability; Caco-2 cells, read-out: mean Papp): 24.2 ×10⁻⁶ cm/s; cumulative total sleep time ([6]; actigraphy, patients showing higher exposure to trazodone): slightly longer sleep time; correlation between secondary PK parameters and relative change from baseline in total sleep time ([6]; interim analysis): correlations were observed; Inter-individual variability in clearance estimates ([6]; pediatric patients vs adult subjects, interim analysis): considerably higher than what has been observed previously in adult subject; dose proportionality of pharmacokinetics ([6]; pediatric patients, 0.25/0.4/0.5 mg/kg/day, interim analysis of 18 patients): dose-proportional; sleep time ([6]; pediatric population with NDD, 0.4 and 0.5 mg/kg/day by drops, preliminary): increase the sleep time; total sleep time ([6]; visit 3, small proportion of patients assigned to 0.4 and 0.5 mg/kg dose, actigraphy): > 9 h; CLint, CYP3A4 (CYP3A4; Retrograde calculation, 70% of hepatic metabolism assigned to CYP3A4): 0.438 µL/min/pmol; fmCYP3A4 (CYP3A4; estimation of CYP3A4-mediated metabolism): 70%
